Measurements reported in patent US20230278972A1, “SUBSTITUTED HALOALKYL SULFONANILIDE HERBICIDES” (FMC Corporation, priority 2020, published 2023).

Experiments:
Type in all cases: in vivo
[1] = tested on: barnyardgrass (Echinochloa crus-galli); experiment: Test A preemergence, barnyardgrass; details: Preemergence; for Plant response rating, Barnyardgrass: 500 g ai/ha, 0 to 100 scale (0 no effect, 100 complete control); for Barnyardgrass plant response rating: 125 g ai/ha, visual injury on 0 to 100 scale (0 no effect, 100 complete control), approximately 10 days
How it was run: (§1)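 Compounds in non-phytotoxic solvent with surfactant. Soil: loam/sand. Preemergence via directed soil spray after seeding; postemergence on seedlings 2–10 cm, one- to two-leaf.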

[2] = tested on: kochia (Bassia scoparia); experiment: Test A preemergence, kochia; details: Preemergence; for Kochia plant response rating: 125 g ai/ha, visual injury on 0 to 100 scale (0 no effect, 100 complete control), approximately 10 days; for Plant response rating, Kochia: 500 g ai/ha, 0 to 100 scale (0 no effect, 100 complete control)
How it was run: as §1

[3] = tested on: Ryegrass, Italian (Italian ryegrass, Lolium multiflorum); experiment: Test A preemergence, Ryegrass, Italian; details: Preemergence; for Ryegrass, Italian plant response rating: 125 g ai/ha, visual injury on 0 to 100 scale (0 no effect, 100 complete control), approximately 10 days; for Plant response rating, Ryegrass, Italian: 500 g ai/ha, 0 to 100 scale (0 no effect, 100 complete control)
How it was run: as §1

[4] = tested on: Foxtail, Giant (giant foxtail, Setaria faberi); experiment: Test A preemergence, Foxtail, Giant; details: Preemergence; for Foxtail, Giant plant response rating: 125 g ai/ha, visual injury on 0 to 100 scale (0 no effect, 100 complete control), approximately 10 days; for Plant response rating, Foxtail, Giant: 500 g ai/ha, 0 to 100 scale (0 no effect, 100 complete control)
How it was run: as §1

[5] = tested on: pigweed (Amaranthus retroflexus); experiment: Test A preemergence, pigweed; details: for Pigweed plant response rating: 125 g ai/ha, visual injury on 0 to 100 scale (0 no effect, 100 complete control), approximately 10 days; for Plant response rating, Pigweed: 500 g ai/ha, 0 to 100 scale (0 no effect, 100 complete control)
Excerpt: Seeds of plant species selected from barnyardgrass (Echinochloa crus-galli), kochia (Bassia scoparia), ragweed (common ragweed, Ambrosia artemisiifolia), Ryegrass, Italian (Italian ryegrass, Lolium multiflorum), Foxtail, Giant (giant foxtail, Setaria faberi), and pigweed (Amaranthus retroflexus) were planted into a blend of loam soil and sand and treated preemergence with a directed soil spray using test chemicals formulated in a non-phytotoxic solvent mixture which included a surfactant. At the same time, plants selected from these weed species and also wheat (Triticum aestivum), corn (Zea mays), blackgrass (Alopecurus myosuroides), and galium (catchweed bedstraw, Galium aparine) were planted in pots containing the same blend of loam soil and sand and treated with postemergence applications of test chemicals formulated in the same manner. Plants ranged in height from 2 to 10 cm and were in the one- to two-leaf stage for the postemergence treatment. […] A dash (-) response means no test result.

[6] = tested on: barnyardgrass (Echinochloa crus-galli); experiment: Test A postemergence, barnyardgrass; details: Postemergence, 0 to 100 scale (0 no effect, 100 complete control)
How it was run: (§2)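 Preemergence: seeded pots of loam plus sand received a directed soil spray. Postemergence: seedlings at one to two leaves, 2 to 10 cm high, were oversprayed. Each compound was formulated in a non-phytotoxic solvent mix that included a surfactant.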

[7] = tested on: kochia (Bassia scoparia); experiment: Test A postemergence, kochia; details: Postemergence, 0 to 100 scale (0 no effect, 100 complete control)
How it was run: as §1

[8] = tested on: ragweed (common ragweed, Ambrosia artemisiifolia); experiment: Test A postemergence, ragweed; details: Postemergence, 0 to 100 scale (0 no effect, 100 complete control)
How it was run: as §1

[9] = tested on: Ryegrass, Italian (Italian ryegrass, Lolium multiflorum); experiment: Test A postemergence, Ryegrass, Italian; details: Postemergence, 0 to 100 scale (0 no effect, 100 complete control)
How it was run: as §1

[10] = tested on: Foxtail, Giant (giant foxtail, Setaria faberi); experiment: Test A postemergence, Foxtail, Giant; details: Postemergence, 0 to 100 scale (0 no effect, 100 complete control)
How it was run: as §1

[11] = tested on: pigweed (Amaranthus retroflexus); experiment: Test A postemergence, pigweed; details: Postemergence, 0 to 100 scale (0 no effect, 100 complete control)
How it was run: as §1

[12] = tested on: wheat (Triticum aestivum); experiment: Test A postemergence, wheat; details: Postemergence, 0 to 100 scale (0 no effect, 100 complete control)
How it was run: as §2

[13] = tested on: corn (Zea mays); experiment: Test A postemergence, corn; details: Postemergence, 0 to 100 scale (0 no effect, 100 complete control)
How it was run: as §1

[14] = tested on: blackgrass (Alopecurus myosuroides); experiment: Test A postemergence, blackgrass; details: Postemergence, 0 to 100 scale (0 no effect, 100 complete control)
How it was run: as §1

[15] = tested on: galium (catchweed bedstraw, Galium aparine); experiment: Test A postemergence, galium; details: Postemergence, 0 to 100 scale (0 no effect, 100 complete control)
How it was run: as §2

[16] = 125 g ai/ha, visual injury approx. 10 days
[17] = 500 g ai/ha, visual injury, approx. 10 days

Cc1cc(Br)c(NS(=O)(=O)C(F)(F)F)cc1C(=O)N1CCOCC1 [Compound 14]
30: Plant response rating, Ryegrass, Italian [9, 17] | Plant response rating, Wheat [12, 16]
70: Kochia plant response rating [2] | Foxtail, Giant plant response rating [4] | Plant response rating, Kochia [7, 17] | Plant response rating, Ragweed [8, 17] | Plant response rating, Foxtail, Giant [10, 17] | Plant response rating, Wheat [12, 17] | Plant response rating, Galium [15, 16]
20: Plant response rating, Corn [13, 17]
0: Plant response rating, Ryegrass, Italian [9, 16] | Plant response rating, Corn [13, 16]
40: Plant response rating, Barnyardgrass [6, 16] | Plant response rating, Kochia [7, 16] | Plant response rating, Foxtail, Giant [10, 16] | Plant response rating, Blackgrass [14, 17]
90: Plant response rating, Barnyardgrass [1] | Plant response rating, Kochia [2] | Plant response rating, Pigweed [5] | Plant response rating, Pigweed [11, 17]
60: Ryegrass, Italian plant response rating [3] | Plant response rating, Ragweed [8, 16] | Plant response rating, Pigweed [11, 16]
80: Plant response rating, Foxtail, Giant [4] | Pigweed plant response rating [5] | Plant response rating, Barnyardgrass [6, 17] | Plant response rating, Galium [15, 17]
100: Plant response rating, Ryegrass, Italian [3]
10: Plant response rating, Blackgrass [14, 16]

Cc1cc(C2CC2)c(NS(=O)(=O)C(F)(F)F)cc1C(=O)N1CCOCC1 [Compound 13]
20: Kochia plant response rating [2] | Ryegrass, Italian plant response rating [3] | Pigweed plant response rating [5] | Plant response rating, Pigweed [11, 17] | Plant response rating, Galium [15, 16]
50: Plant response rating, Kochia [2]
10: Plant response rating, Foxtail, Giant [4] | Plant response rating, Kochia [7, 17] | Plant response rating, Ragweed [8, 16] | Plant response rating, Foxtail, Giant [10, 17]
100: Plant response rating, Barnyardgrass [1]
30: Plant response rating, Ryegrass, Italian [3] | Plant response rating, Ragweed [8, 17] | Plant response rating, Galium [15, 17]
0: Foxtail, Giant plant response rating [4] | Plant response rating, Barnyardgrass [6, 16] | Plant response rating, Kochia [7, 16] | Plant response rating, Ryegrass, Italian [9, 16] | Plant response rating, Ryegrass, Italian [9, 17] | Plant response rating, Foxtail, Giant [10, 16] | Plant response rating, Pigweed [11, 16] | Plant response rating, Wheat [12, 16] | Plant response rating, Wheat [12, 17] | Plant response rating, Corn [13, 16] | Plant response rating, Corn [13, 17] | Plant response rating, Blackgrass [14, 16] | Plant response rating, Blackgrass [14, 17]
40: Plant response rating, Barnyardgrass [6, 17]
60: Barnyardgrass plant response rating [1] | Plant response rating, Pigweed [5]

Cc1cc(Cl)c(NS(=O)(=O)C(F)(F)F)cc1C(=O)N(C)C [Compound 23]
40: Ryegrass, Italian plant response rating [3] | Plant response rating, Kochia [7, 16]
100: Plant response rating, Barnyardgrass [1] | Plant response rating, Ryegrass, Italian [3] | Plant response rating, Foxtail, Giant [4] | Plant response rating, Pigweed [5]
90: Barnyardgrass plant response rating [1] | Plant response rating, Foxtail, Giant [10, 17] | Plant response rating, Galium [15, 17]
80: Kochia plant response rating [2] | Plant response rating, Kochia [2] | Pigweed plant response rating [5] | Plant response rating, Ragweed [8, 16] | Plant response rating, Ragweed [8, 17] | Plant response rating, Ryegrass, Italian [9, 17] | Plant response rating, Pigweed [11, 17] | Plant response rating, Galium [15, 16]
20: Plant response rating, Corn [13, 16]
70: Foxtail, Giant plant response rating [4] | Plant response rating, Barnyardgrass [6, 17] | Plant response rating, Kochia [7, 17] | Plant response rating, Pigweed [11, 16] | Plant response rating, Wheat [12, 17] | Plant response rating, Corn [13, 17]
30: Plant response rating, Ryegrass, Italian [9, 16] | Plant response rating, Blackgrass [14, 16] | Plant response rating, Blackgrass [14, 17]
50: Plant response rating, Barnyardgrass [6, 16] | Plant response rating, Foxtail, Giant [10, 16] | Plant response rating, Wheat [12, 16]
